Laboratory results from patent publication US20230416168A1 (EUROCHEM ANTWERPEN, priority 2020, published 2023).
Entries after “also recorded” stand apart in the source; their conditions may differ.

Experiments:
Nitrosomonas europaea = assay: Nitrification inhibition assay with Nitrosomonas europaea (nitrite level after 24 h); assay type: cell-based; conditions: for IC50 / activity at 100 µM: Nitrosomonas europaea; for IC50: 8-point dose response, 2 to 100 μM, read-out: IC50; for activity at 100 µM: tested concentration 100 μM, 24 h, normalized to DMSO (100%) and 100 μM DMP (0%), read-out: Nitrification (%) at tested concentration (0 = maximum activity)
Method: (§1) The compounds of formula (I) and (II) and (III)/(IV) were tested for their nitrification inhibition effect in two screens, using assays with the nitrifying bacteria N. europaea and N. multiformis. In practice, ammonium and candidate nitrification inhibitors (at 100 μM) were added to a dense bacterial culture in multiwell culture plates and after 24 h of incubation, the nitrite level was measured. To normalize for differences between batches of cultures and multiwell culture plates, for each well a relative nitrification was calculated that was normalized towards both the negative and positive controls (see “Material and Methods” below for full details).
(§2) Nitrite (NO2−) was measured using the Griess reagent (Product number: G4410, Griess reagent (modified), Sigma-Aldrich). Equal volumes of the sample or a diluted sample and the Griess reagent were mixed a transparent flat bottom multi-well plate and incubated in the dark at room temperature for 10 minutes. Absorbance values at 540 nm were measured spectrophotometrically (EnVision, Perkin Elmer®) and used to calculate the [NO2−] by use of a standard curve.
To prepare a high-throughput nitrification inhibition assay using N. europaea, late-log phase cultures were subcultivated two days before the assay. Just before the assay, the cultures were 5 times overconcentrated with fresh growth medium after centrifugation (4000 rpm, 15 min, 5° C.) in 50 mL centrifuge tubes (Cat. No. 430829, CentriStar™ Conical Centrifuge Tubes, Corning®). Per batch, all the cultures were pooled in one sterile Schott bottle and subsequently dispensed into 384-well plates (Cat. No. 781086, CELL-STAR® plate, Greiner Bio-One; 50 μl/well) by use of a dispenser (Multidrop™ Combi Reagent Dispenser, Thermo Scientific™) that was first flushed with growth medium. Specifically for the high-throughput screen for new nitrification inhibitors, 0.5 μl of 99.99% DMSO (negative control—final concentration 1%) was added to the outer two columns on the left side of the plate and 0.5 μl of 10 mM DMP (3,4-dimethylpyrazole, positive control—final concentration 100 μM) was added to the outer two columns on the right side manually. Finally, 0.5 μl of candidate nitrification inhibitors (5 mM stock solutions in 99.99% DMSO—final concentration 50 μM) were added to the central wells using a pin tool on a Tecan robot (Freedom EVO®, Tecan). In between additions, the pins were washed in sequence with 99.5% DMSO, MilliQ water and 100% ethanol and air-dried. All plates were separately wrapped in Parafilm. Stacks of 4 plates were put on top of a 96-well plate filled with 100 μl MilliQ per well, covered with aluminum foil and shaken at 150 rpm at 28° C. 24 h later, NO2− production was assessed. For this, the samples were first 200 times diluted by pipetting 1.5 μl of samples into 300 μl of fresh growth medium in intermediate plates (Cat. No. 353077, Falcon® 96-well Clear Round Bottom Microplate, Corning®), to then mix 15 μl of the diluted samples with 15 μl Griess reagent in the wells of a transparent, flat bottom 384-well plate (Cat. No. X^7001, Low Profile Microplate, Molecular Devices) that was measured spectrophotometrically at 540 nm (EnVision, Perkin Elmer®).
(§3) To assess the efficacy of the compounds (in terms of nitrification inhibition) and to enable comparison between plates and batches of cultures, we calculated the relative nitrification. More in detail, all nitrite results were normalized towards both a negative control, containing no compound, and a positive control, containing the benchmark (100 μM DMP), using Equation 1. This normalization was done per multi-well plate and each plate contained 32 positive and 32 negative controls.
IC50 values, that is the concentration that inhibits 50% of the nitrification, were calculated after fitting a logistic curve to 8-point dose response data, using doses between 2 and 100 μM with 1.75 fold steps. […]

Nitrosospira multiformis = assay: Nitrification inhibition assay with Nitrosospira multiformis (nitrite level after 24 h); assay type: cell-based; conditions: for IC50 / activity at 100 µM: Nitrosospira multiformis; for IC50: 8-point dose response, 2 to 100 μM, read-out: IC50; for activity at 100 µM: tested concentration 100 μM, 24 h, normalized to DMSO (100%) and 100 μM DMP (0%), read-out: Nitrification at tested concentration (0 = maximum activity)
Method: as §1, §2
Cultures were first 5 times overconcentrated in fresh 181-medium by centrifugation (4000 rpm, 15 min, 5° C.) in 50 mL centrifuge tubes (Cat. No. 430829, CentriStar™ Conical Centrifuge Tubes, Corning®). Per batch, all the cultures were pooled in one sterile Schott bottle and subsequently dispensed in 384-well plates (Cat. No. 781086, CELLSTAR® plate, Greiner BioOne; 50 μl/well) by use of a dispenser (Multidrop™ Combi Reagent Dispenser, Thermo Scientific™) that was first flushed with 181-medium. 0.5 μl of 99.99% DMSO (negative control—final concentration […] was added to the outer two columns on the left side of the plate and 0.5 μl of 10 mM DMP (3,4-dimethylpyrazole, positive control—final concentration 100 μM) was added to the outer two columns on the right side manually. Finally, 0.5 μl of candidate nitrification inhibitors (5 mM stock solutions in 99.99% DMSO—final concentration 50 μM) were added to the central wells using a pin tool on a Tecan robot (Freedom EVO®, Tecan). In between additions, the pins were washed in sequence with 99.5% DMSO, MilliQ water and 100% ethanol and air-dried. All plates were separately wrapped in Parafilm. Stacks of 4 plates were put on top of a 96-well plate filled with 100 μl MilliQ per well, covered with aluminum foil and shaken (±150 rpm) at 30° C. 24 h later, NO2− production was assessed. For this, the samples were first 100 times diluted by pipetting 3 μl of samples into 300 μl fresh growth medium in intermediate plates (Cat. No. 353077, Falcon® 96-well Clear Round Bottom Microplate, Corning®) to then mix 15 μl of the diluted samples with 15 μl Griess reagent in the wells of a transparent, flat bottom 384-well plate (Cat. No. X^7001, Low Profile Microplate, Molecular Devices) that was measured spectrophotometrically at 540 nm (EnVision, Perkin Elmer®).
as §3
IC50 values, that is the concentration that inhibits 50% of the nitrification, were calculated after fitting a logistic curve to 8-point dose response data, using doses between 2 and 100 μM with 1.75 fold steps. If a concentration of 2 μM already inhibited nitrification, the IC50 value could not be calculated. In that case, IC50 values represent the dose that gives inhibition closest to 50%.
The compounds of formula (I) and (II) were tested for their nitrification inhibition effect in two screens, using assays with the nitrifying bacteria N. europaea and N. multiformis. […]

[1] = tested on: NH3 or NH2OH oxidation in N. europaea cells; assay: Nitrosomonas europaea ammonia vs. hydroxylamine oxidation assay; assay type: cell-based; conditions: for Nitrification from NH2OH (% compared to DMSO): 1 mM NH2OH as N-source; for Nitrification from NH2OH (% compared to DMSO) / Nitrification from NH3 (% compared to DMSO): compounds 50 μM, NO2- after 30 min; for Nitrification from NH3 (% compared to DMSO): NH4+ 1 mM as N-source
Method: Two days old, late-log phase cultures with a NO2− concentration between 10 and 20 mM were washed 3 times in fresh growth medium (without N) and finally 4 times overconcentrated via centrifugation (4000 rpm, 15 min, 4° C.). Transparent, flat bottom 96-well plate (Cat. No. 353072, Falcon® 96 Well Clear Flat Bottom Microplate, Corning®) were filled with 150 μl culture per well using a dispenser (Multidrop™ Combi Reagent Dispenser, Thermo Scientific™). Compounds (final concentration 50 μM) were added in triplicate to the multi-well plate by use of a Tecan robot (Freedom EVO®, Tecan). Thiourea (positive control for inhibition of NH3 oxidation—final concentration 100 μM) and phenylhydrazine hydrochloride (positive control for inhibition of NH2OH oxidation—final concentration 1 mM) were added to the outer two columns. Each plate was made in duplicate to add either 500 μM (NH4)2SO4 (final [NH4+]=1 mM) or 1 mM NH2OH. All plates were separately wrapped in Parafilm. Stacks of 4 plates were put on top of a 96-well plate filled with 100 μl MilliQ per well, covered with aluminum foil and shaken (±150 rpm) at 28° C. To prevent read-out of secondary effects on NO2− production, NO2− was measured only 30 min later. For this, the samples were first 2 times diluted by pipetting 15 μl in 15 μl fresh growth medium in 96-well intermediate plates (Cat. Ref. PCR-96-FS-C, 96-well PCR Microplate, Axygen®) to then mix 15 μl of the diluted samples with 15 μl Griess reagent in the wells of a transparent, flat bottom 384-well plate (Cat. No. X^7001, Low Profile Microplate, Molecular Devices) that was measured spectrophotometrically at 540 nm (EnVision, Perkin Elmer®).
To get insights on the targeted metabolic pathway and to discriminate between compounds that specifically affect NH3 oxidation or that affect another pathway, three representative novel nitrification inhibitors (Examples 1, 5 and 6) were tested in the “ammonia vs hydroxylamine oxidation assay” in which NO2− production from NH3 was compared with NO2− production from NH2OH.

Merelbeke soil = assay: In soil nitrification inhibition assay, Merelbeke soil; conditions: for inhibition of ammonium consumption in soil, in words: 50 μM, one week of treatment; for inhibition at 50 µM: soil, 168 h, 7 days, read-out: % Nitrification inhibition in soil (7 days of incubation, Merelbeke soil)
Method: Top layer (0 to 10 cm) soil samples were collected from different fields in Belgium (Merelbeke and Moorslede). Vegetation on the field trial was removed and samples were taken from different plots. All soil samples were mixed and sieved (mesh size 2.8 mm) to filter large debris and homogenize soil. The soil was stored at 5° C. in plastic containers covered with Saran foil to prevent changes in microbial community composition and to maintain the original soil water content. Soil water content was determined by drying 20 g soil for 48 h in a 60° C. oven and measuring weight before and after drying. Based on the soil water content (±20%), compound solutions were prepared so that addition of 200 μl compound and 200 μl NH4Cl solution would result in a final compound concentration of 50 μM and a final NH4^+ concentration of 10 mM. Per treatment, 5 small pots were filled with 20 g soil. Next, the soil was treated first with the respective compound solution and then with the NH4Cl solution. Per tray, positive (50 μM DMP) and negative controls (DMSO) were included. Pots were incubated at 21° C. (6 a.m. to 10 p.m. light) for 7 days. Demineralized water was added to the soil every 2 to 3 days to a soil weight of 20 g. In the end, each sample of 20 g soil was dissolved in 100 ml 1M KCl and shaken for 1 hour, followed by filtration through Whatmann® paper. The filtrate was used to measure pH, NH4^+ and NO3− concentrations. The nitrification inhibitors were applied in a nitrification inhibition assay using agricultural soil. In practice, ammonium with or without the new nitrification inhibitors was added to soil from a field in Merelbeke (Belgium). The ammonium level was measured at the start of the experiment and at the end of the experiment, after one week of incubation. A nitrification inhibition percentage was calculated by comparing the reduction in ammonium level with the nitrification inhibitor to the reduction in ammonium without the nitrification inhibitor. Ammonium was added to soil with a high nitrification activity and treated with the nitrification inhibitors (final concentration of 50 μM). […] This validates that the new nitrification inhibitors are effectively inhibiting ammonia oxidation by soil communities.

IC50 (Nitrosomonas europaea) [µM]	IC50 (Nitrosospira multiformis) [µM]	Structure (SMILES)	nitrification inhibition, in words (Nitrosomonas europaea)	activity at 100 µM (Nitrosomonas europaea) [%]	nitrification inhibition, in words (Nitrosospira multiformis)	activity at 100 µM (Nitrosospira multiformis) [%]	Nitrification from NH2OH (% compared to DMSO) [1] [%]	Nitrification from NH3 (% compared to DMSO) [1] [%]	inhibition of ammonium consumption in soil, in words (Merelbeke soil)	inhibition at 50 µM (Merelbeke soil) [%]	effect on hydroxylamine (NH2OH) oxidation, in words ([1]; 30 minutes assay, listed as DMP)
14	< 3.5	CN(Cc1c(F)cccc1Cl)CN1CCOC1=S [Example 6, 3-[[(2-chloro-6-fluorophenyl)methyl-methylamino]methyl]-1,3-oxazolidine-2-thione]	strong nitrification inhibition	0	strong nitrification inhibition	0	80	18			
> 100	< 6	CCC1CCCCN1C(=O)CSC1=NCCS1 (stereo not drawn) [Example 9]		68		0			significant inhibition	10	
> 100	< 10	O=C(CSC1=NCCS1)N1CCCC1 [Example 10]		81		6			significant inhibition	7	
6	14	Cc1c[nH]nc1C [Example C1, 3,4-dimethylpyrazole, reference compound]		0		0	56	27			reduced NH2OH oxidation; also recorded: limited effect
